Laboratory results published in ChEMBL document CHEMBL1201862, “PubChem BioAssay data set” (2004).
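Five compound concentrations were applied to cells in 96-well plates for 48 hours; endpoints were derived by simple linear interpolation of the resulting dose-response curve. The concentration for 50% growth inhibition is given as GI50.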 The source made the active and inactive calls. Cut-off read from the data, not from the text of the source: active = GI50 up to about 1.1 µM and inactive = higher.

Columns and labels:
Assay in all cases: DTP human tumour cell line panel, 48 h
[1] = tested on: 786-0
[2] = tested on: A498
[3] = tested on: A549
[4] = tested on: ACHN
[5] = tested on: BT-549
[6] = tested on: CAKI-1
[7] = tested on: CCRF-CEM
[8] = tested on: COLO 205
[9] = tested on: DU-145
[10] = tested on: EKVX
[11] = tested on: HCC 2998
[12] = tested on: HCT-116
[13] = tested on: HCT-15
[14] = tested on: HL-60
[15] = tested on: HOP-62
[16] = tested on: HOP-92
[17] = tested on: HT-29
[18] = tested on: Hs-578T
[19] = tested on: IGROV-1
[20] = tested on: K562
[21] = tested on: KM12
[22] = tested on: LOX IMVI
[23] = tested on: M14
[24] = tested on: MCF7
[25] = tested on: MDA-MB-231
[26] = tested on: MDA-MB-435
[27] = tested on: MDA-N
[28] = tested on: MOLT-4
[29] = tested on: Malme-3M
[30] = tested on: NCI-H226
[31] = tested on: NCI-H23
[32] = tested on: NCI-H460
[33] = tested on: NCI-H522
[34] = tested on: NCI/ADR-RES
[35] = tested on: OVCAR-3
[36] = tested on: OVCAR-4
[37] = tested on: OVCAR-5
[38] = tested on: OVCAR-8
[39] = tested on: PC-3
[40] = tested on: RPMI-8226
[41] = tested on: RXF 393
[42] = tested on: SF-268
[43] = tested on: SF-295
[44] = tested on: SF-539
[45] = tested on: SK-MEL-28
[46] = tested on: SK-MEL-2
[47] = tested on: SK-MEL-5
[48] = tested on: SK-OV-3
[49] = tested on: SN12C
[50] = tested on: SNB-19
[51] = tested on: SNB-75
[52] = tested on: SR
[53] = tested on: SW-620
[54] = tested on: T47D
[55] = tested on: TK-10
[56] = tested on: U-251
[57] = tested on: UACC-257
[58] = tested on: UACC-62
[59] = tested on: UO-31
[60] = tested on: KM-20L2
[61] = tested on: DLD-1
[62] = tested on: LXFL 529
[63] = tested on: M19-MEL
[64] = tested on: XF498
[65] = tested on: DMS-273

Compound: N#Cc1cccc(C2ON=C(c3ccc([N+](=O)[O-])cc3)N2C23CC4CC(CC(C4)C2)C3)c1 (stereo not given)
- GI50 [1]: > 100 µM (inactive)
- GI50 [2]: > 100 µM (inactive)
- GI50 [3]: 27.4 µM (inactive)
- GI50 [4]: > 100 µM (inactive)
- GI50 [5]: 82.6 µM (inactive)
- GI50 [6]: 11.7 µM (inactive)
- GI50 [7]: > 100 µM (inactive)
- GI50 [8]: > 100 µM (inactive)
- GI50 [9]: > 100 µM (inactive)
- GI50 [10]: > 100 µM (inactive)
- GI50 [11]: > 100 µM (inactive)
- GI50 [12]: 6.21 µM (inactive)
- GI50 [13]: 66.8 µM
- GI50 [14]: 8.69 µM (inactive)
- GI50 [15]: > 100 µM (inactive)
- GI50 [16]: 69.2 µM (inactive)
- GI50 [17]: > 100 µM (inactive)
- GI50 [18]: 39.8 µM (inactive)
- GI50 [19]: > 100 µM (inactive)
- GI50 [20]: > 100 µM (inactive)
- GI50 [21]: > 100 µM (inactive)
- GI50 [22]: 74.1 µM (inactive)
- GI50 [23]: 57.8 µM (inactive)
- GI50 [24]: 34.4 µM (inactive)
- GI50 [25]: 63.7 µM (inactive)
- GI50 [26]: > 100 µM (inactive)
- GI50 [27]: > 100 µM (inactive)
- GI50 [28]: 6.68 µM (inactive)
- GI50 [29]: 59.7 µM (inactive)
- GI50 [30]: > 100 µM (inactive)
- GI50 [31]: > 100 µM (inactive)
- GI50 [32]: > 100 µM (inactive)
- GI50 [33]: 24.3 µM (inactive)
- GI50 [34]: > 100 µM (inactive)
- GI50 [35]: 39.3 µM (inactive)
- GI50 [36]: 26.9 µM (inactive)
- GI50 [37]: 3.21 µM (inactive)
- GI50 [38]: > 100 µM (inactive)
- GI50 [39]: 5.2 µM (inactive)
- GI50 [40]: > 100 µM (inactive)
- GI50 [41]: 13.1 µM (inactive)
- GI50 [42]: > 100 µM (inactive)
- GI50 [43]: 79.8 µM (inactive)
- GI50 [44]: > 100 µM (inactive)
- GI50 [45]: > 100 µM (inactive)
- GI50 [46]: 16.7 µM (inactive)
- GI50 [47]: 43.6 µM (inactive)
- GI50 [48]: > 100 µM (inactive)
- GI50 [49]: > 100 µM (inactive)
- GI50 [50]: > 100 µM (inactive)
- GI50 [51]: > 100 µM (inactive)
- GI50 [52]: 7.71 µM (inactive)
- GI50 [53]: > 100 µM (inactive)
- GI50 [54]: 17.3 µM (inactive)
- GI50 [55]: > 100 µM (inactive)
- GI50 [56]: > 100 µM (inactive)
- GI50 [57]: > 100 µM (inactive)
- GI50 [58]: > 100 µM (inactive)
- GI50 [59]: 24.1 µM (inactive)

Compound: O=C(N/N=C/c1cc(Cl)cc(Cl)c1O)c1ccncc1
- GI50 [1]: 57.9 µM (inactive)
- GI50 [2]: > 100 µM (inactive)
- GI50 [3]: > 100 µM (inactive)
- GI50 [4]: 68.9 µM (inactive)
- GI50 [7]: 31.2 µM (inactive)
- GI50 [8]: > 100 µM (inactive)
- GI50 [10]: 22 µM (inactive)
- GI50 [11]: > 100 µM (inactive)
- GI50 [12]: > 100 µM (inactive)
- GI50 [13]: 29.7 µM
- GI50 [14]: 26.4 µM (inactive)
- GI50 [15]: 53.2 µM (inactive)
- GI50 [17]: > 10 µM (inactive)
- GI50 [19]: 63.5 µM (inactive)
- GI50 [20]: > 100 µM (inactive)
- GI50 [60]: 37.3 µM (inactive)
- GI50 [21]: > 100 µM (inactive)
- GI50 [22]: > 100 µM (inactive)
- GI50 [23]: > 100 µM (inactive)
- GI50 [28]: 36.9 µM (inactive)
- GI50 [29]: > 100 µM (inactive)
- GI50 [30]: > 100 µM (inactive)
- GI50 [31]: 78.9 µM (inactive)
- GI50 [32]: 39 µM (inactive)
- GI50 [33]: > 100 µM (inactive)
- GI50 [35]: 32.2 µM (inactive)
- GI50 [37]: 39.1 µM (inactive)
- GI50 [38]: 70.6 µM (inactive)
- GI50 [40]: > 100 µM (inactive)
- GI50 [41]: > 100 µM (inactive)
- GI50 [42]: > 100 µM (inactive)
- GI50 [43]: 60.1 µM (inactive)
- GI50 [44]: 68.5 µM (inactive)
- GI50 [45]: > 100 µM (inactive)
- GI50 [47]: 81.3 µM (inactive)
- GI50 [48]: > 100 µM (inactive)
- GI50 [49]: > 100 µM (inactive)
- GI50 [50]: > 100 µM (inactive)
- GI50 [51]: > 100 µM (inactive)
- GI50 [52]: 39.1 µM (inactive)
- GI50 [53]: > 100 µM (inactive)
- GI50 [55]: > 100 µM (inactive)
- GI50 [56]: 92.3 µM (inactive)
- GI50 [57]: > 100 µM (inactive)
- GI50 [58]: 63 µM (inactive)
- GI50 [59]: 71.1 µM (inactive)

Compound: COc1cc(C2c3cc4c(cc3[C@@H](NCCN(C)C)C3COC(=O)[C@H]23)OCO4)cc(OC)c1O (stereo not given in full)
- GI50 [3]: 0.0207 µM (active)
- GI50 [61]: 1.46 µM (inactive)
- GI50 [14]: 0.0127 µM (active)
- GI50 [16]: 0.0303 µM (active)
- GI50 [20]: 0.407 µM (active)
- GI50 [21]: 0.931 µM (active)
- GI50 [62]: 1.82 µM (inactive)
- GI50 [23]: 0.255 µM (active)
- GI50 [63]: 0.91 µM (active)
- GI50 [29]: 0.36 µM (active)
- GI50 [30]: 0.0156 µM (active)
- GI50 [32]: < 0.01 µM (active)
- GI50 [35]: 1.34 µM (inactive)
- GI50 [36]: 3.09 µM (inactive)
- GI50 [40]: 0.29 µM (active)
- GI50 [44]: 0.0585 µM (active)
- GI50 [45]: 0.309 µM (active)
- GI50 [47]: 0.133 µM (active)
- GI50 [50]: 0.598 µM (active)
- GI50 [51]: 0.13 µM (active)
- GI50 [53]: 0.296 µM (active)
- GI50 [55]: 1.69 µM (inactive)
- GI50 [56]: 0.0687 µM (active)
- GI50 [59]: 0.284 µM (active)
- GI50 [64]: 0.2 µM (active)

Compound: NC(=O)c1cn(C2OC(CO)C(O)C2O)c2ncnc(N)c12 (stereo not given)
- GI50 [65]: 0.0381 µM (active)
- GI50 [19]: 0.0885 µM (active)
- GI50 [24]: 0.0902 µM (active)
- GI50 [38]: 0.139 µM (active)
- GI50 [51]: 0.0422 µM (active)
